Measurements: patent US20060019335A1, “Compositions and methods to promote c-IAP autodegradation” (priority 2004, published 2006)
Residues, ends and D or L forms follow the SMILES beside them. *: point of attachment. Cbz = O=C(OCc1ccccc1)*

What was measured:
c-IAP2 = target: T1, c-IAP2 (Homo sapiens, UniProt Q13489); test: Co-transfection of HeLa cells with c-IAP2 and Smac plasmids, Western blot; format: cell-based; details: MG132 added
T1 construct: produced not only the expected full length c-IAP1 or c-IAP2; expressed in transfected cells; host or cells: HeLa
Description: (§1) Transfection of cultured Cells—HeLa cells were grown in DMEM supplemented with 10% fetal bovine serum. Cells were seeded onto 6-well plates the day before transfection and transfected at 70% confluence by using Lipofectin combined with Plus reagent (Invitrogen) according to the manufacture's protocols. The IAP expression plasmids (3 μg each for c-IAP1, c-IAP2 and XIAP, and 250 ng each for Livin αand Livin β) together with 2.5 μg of Smac expression plasmids or pcDNA3.1(−) blank plasmid were used for single-well transfection in the absence of antibiotics. The cells were harvested 12 hours after the transfection and lysed with 0.5% CHAPS in 20 mM HEPES (pH 7.4), 10 mM KCl, 1 mM MgCl2 and 1 mM DTT. The lysates were centrifuged and the protein concentrations of the supernatants were quantified by the modified Bradford method (36).
(§2) Western Blot analysis—Proteins were resolved by SDS-PAGE and transferred to nitrocellulose filters. The filters were blocked with 5% milk and probed with antibodies as indicated. The signals were visualized with the enhanced chemiluminescence method.
(§3) To investigate the effect of Smac polypeptide on IAP protein levels, HeLa cells were transfected with the expression vectors for Smac and various IAPs. Briefly, HeLa cells were either transfected with IAP alone (Lane 2, 4 and 6), or together with Smac polypeptide (Lane 3, 5 and 7), or with Smac polypeptide alone (Lane 1). Equal amounts of cell lysates (7 μg) were immunoblotted with either the HRP-conjugated anti-FLAG antibody (shown in the top panel) in order to detect N-terminal 3×FLAG tagged IAPs, or with the anti-c-Myc antibody (bottom panel) to detect C-terminal c-Myc tagged Smac. The ubiquitin fusion technique was used to secure the production of mature Smac protein with the expected N-terminal AVPI motif (6, 37).
(§4) Because it is known that the His^588 residue in the RING finger domain is important for the IAP E3 activity (22), this residue was mutated to test whether Smac stimulated the ubiquitylation-mediated degradation of both c-IAP1 and c-IAP2. In each case, His^588 in c-IAP1 and His^574 in c-IAP2 was mutated to Ala (H588A mutant and H574A mutant, respectively) and the results are depicted in FIGS. 2A and 2B. The c-IAP1 WT or H588A mutant plasmids together with either Smac WT or Smac ΔA mutant, or with pcDNA3.1 (−) blank plasmid were co-transfected into HeLa cells (FIG. 2A). The c-IAP2 WT or H574A mutant plasmids together with either Smac WT or Smac ΔA mutant, or with pcDNA3.1 (−) blank plasmid were co-transfected into HeLa cells (FIG. 2B). As controls, HeLa cells were also transfected with either Smac WT or ΔA plasmids together with the blank p3×FLAG-CMV-7 plasmid. The transfected cells were cultivated either in the absence (see lanes 1-7 of FIGS. 2A and 2B) or in the presence (see lanes 8-14 of FIGS. 2A and 2B) of MG132. Equal amounts of soluble proteins (7 μg) from the transfected cells were immunoblotted with either the HRP-conjugated anti-FLAG antibody (see top panel of FIGS. 2A and 2B) to detect N-terminal 3×FLAG tagged IAPs, or with the anti-c-Myc antibody (see middle panel of FIGS. 2A and 2B) to detect C-terminal c-Myc tagged Smac. The anti-Actin immunoblotting results were to show equal protein loading (see bottom panel of FIGS. 2A and 2B).

XIAP = XIAP (Homo sapiens, UniProt P98170); test: Co-transfection of HeLa cells with XIAP and Smac plasmids, Western blot; format: cell-based; parameters: expressed in transfected cells; host or cells: HeLa; details: presence of MG132
Description: as §1, §2, §3
It is known that XIAP is ubiquitylated by its own E3 activity when expressed in HEK 293T cells and that this auto-ubiquitylation and subsequent degradation is stimulated by Reaper (26). In the current study, XIAP transiently expressed in HeLa cells was ubiquitylated as well; however, mono-ubiquitylation rather than poly-ubiquitylation of XIAP was the major product (see FIG. 3A). Briefly, XIAP WT or H467A mutant plasmids together with either Smac WT or ΔA, or with pcDNA3.1(−) blank plasmid, were co-transfected into the HeLa cells. As controls, HeLa cells were also transfected with either Smac WT or ΔA plasmids together with the blank p3×FLAG-CMV-7 plasmid. The transfected cells were cultivated either in the absence (see lanes 1-7 of FIG. 3A) or in the presence (see lanes 8-14 of FIG. 3A) of MG132. Equal amounts of soluble proteins (7 μg) from the transfected cells were immunoblotted with either the HRP-conjugated anti-FLAG antibody (see top panel of FIG. 3A) to detect N-terminal 3×FLAG tagged IAPs, or with the anti-c-Myc antibody (see middle panel of FIG. 3A) to detect Smac. The anti-Actin immunoblotting results were to show equal protein loading (see bottom panel of FIG. 3A).

c-IAP1 [1] = test: Co-transfection of HeLa cells with c-IAP1 and Smac plasmids, Western blot; format: cell-based, human; details: MG132 added to the culture medium
Description: as §1, §2, §3, §4

c-IAP1 [2] = test: In vitro ubiquitylation assay of purified c-IAP1 and BIR deletion mutants; format: biochemical, human
Description: In vitro ubiquitylation assays—In vitro ubiquitylation assays were carried out as previously described (29). IAP proteins (200 nM) were incubated with or without Smac polypeptide for 2 hours at 30° C. in a reaction system containing 50 mM Tris-HCl (pH 7.5), 50 mM NaCl, 2 mM Mg-ATP, 20 μM mammalian ubiquitin, 100 nM rabbit ubiquitin-activating enzyme (E1) and 400 nM of recombinant human ubiquitin-conjugating enzymes (E2). The reactions were stopped by adding equal volumes of 2×SDS sample loading buffer followed by Western Blot analysis.
To determine whether Smac promotes auto-ubiquitylation of XIAP, purified XIAP (without tag) was incubated for 2 hours at 30° C. either with or without different concentrations of Smac or with Smac ΔA in the reconstituted ubiquitylation reaction system (Ub Mix) consisting of 50 mM Tris-HCl (pH 7.5), 50 mM NaCl, 2 mM Mg-ATP, 20 μM mammalian ubiquitin, 100 nM rabbit ubiquitin-activating enzyme (E1) and 400 nM UbCH6 (E2). The reactions were stopped by adding equal volumes of 2×SDS sample loading buffer and the products were subjected to SDS-PAGE followed by immunoblotting with anti-XIAP antibody. The purified XIAP was active in directing poly-ubiquitylation. But the auto-ubiquitylation of XIAP was not enhanced by Smac.
Smac ΔA and the peptide Smac-7M were used as negative controls. The reactions were stopped by adding equal volumes of 2×SDS sample loading buffer and the products were subjected to SDS-PAGE followed by immunoblotting with anti-c-IAP1 antibody. The arrows indicate the unmodified full length or deleted c-IAP1.
To verify this, stepwise deletion was performed of the first BIR (ΔBIR1, residues 1-161), the first two BIRs (ΔBIR1-2, residues 1-265), or all the three BIR domains (ΔBIR1-2-3, residues 1-339) from c-IAP1. All these mutants and the full-length wild type c-IAP1 were purified as a non-tagged form by using the pTYB11 Intein system (New England Biolabs).
Target sequence in this assay (Q13490 162-618): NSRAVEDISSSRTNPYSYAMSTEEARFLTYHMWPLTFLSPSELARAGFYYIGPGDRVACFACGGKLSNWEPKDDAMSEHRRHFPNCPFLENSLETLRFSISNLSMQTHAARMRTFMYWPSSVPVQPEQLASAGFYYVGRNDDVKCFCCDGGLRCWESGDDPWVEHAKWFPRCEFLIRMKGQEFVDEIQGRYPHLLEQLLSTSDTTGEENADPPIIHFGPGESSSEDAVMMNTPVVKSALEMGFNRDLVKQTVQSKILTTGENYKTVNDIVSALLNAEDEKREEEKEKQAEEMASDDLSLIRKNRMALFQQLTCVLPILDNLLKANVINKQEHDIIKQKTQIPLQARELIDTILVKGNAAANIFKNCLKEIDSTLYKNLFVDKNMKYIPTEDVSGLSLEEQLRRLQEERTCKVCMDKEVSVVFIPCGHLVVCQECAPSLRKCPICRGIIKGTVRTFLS

T1 sequence (Q13489 whole entry): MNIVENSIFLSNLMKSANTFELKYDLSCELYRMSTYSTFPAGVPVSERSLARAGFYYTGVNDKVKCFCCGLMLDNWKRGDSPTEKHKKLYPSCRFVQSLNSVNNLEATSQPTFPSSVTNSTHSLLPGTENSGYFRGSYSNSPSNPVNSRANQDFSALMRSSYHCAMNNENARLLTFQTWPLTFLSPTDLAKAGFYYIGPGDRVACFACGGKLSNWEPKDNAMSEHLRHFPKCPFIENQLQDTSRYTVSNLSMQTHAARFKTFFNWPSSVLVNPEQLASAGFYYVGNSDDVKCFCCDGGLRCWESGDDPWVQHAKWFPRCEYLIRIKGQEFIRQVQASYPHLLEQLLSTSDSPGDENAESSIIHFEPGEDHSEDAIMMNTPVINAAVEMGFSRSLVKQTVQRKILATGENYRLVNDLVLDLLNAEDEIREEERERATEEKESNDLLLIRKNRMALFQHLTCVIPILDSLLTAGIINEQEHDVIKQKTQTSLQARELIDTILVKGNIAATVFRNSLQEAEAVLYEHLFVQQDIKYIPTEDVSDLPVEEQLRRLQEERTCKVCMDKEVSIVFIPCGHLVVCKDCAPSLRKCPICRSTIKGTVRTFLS
Chain of XIAP (P98170 whole entry): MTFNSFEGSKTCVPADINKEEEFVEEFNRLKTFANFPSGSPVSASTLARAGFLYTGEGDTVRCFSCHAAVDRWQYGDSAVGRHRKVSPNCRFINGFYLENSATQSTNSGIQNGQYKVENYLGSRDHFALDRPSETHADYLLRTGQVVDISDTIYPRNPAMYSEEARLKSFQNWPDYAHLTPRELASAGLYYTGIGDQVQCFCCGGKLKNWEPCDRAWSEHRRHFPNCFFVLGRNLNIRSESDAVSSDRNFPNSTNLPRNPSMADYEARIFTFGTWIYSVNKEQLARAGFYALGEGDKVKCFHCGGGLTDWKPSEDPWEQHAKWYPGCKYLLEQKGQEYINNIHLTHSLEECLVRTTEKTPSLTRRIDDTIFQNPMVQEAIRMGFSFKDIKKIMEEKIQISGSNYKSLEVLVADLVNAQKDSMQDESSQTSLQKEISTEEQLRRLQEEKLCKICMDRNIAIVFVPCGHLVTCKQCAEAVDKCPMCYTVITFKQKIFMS

| Compound | level of c-IAP2 (c-IAP2) | poly-ubiquitylated XIAP products (XIAP) | H588A c-IAP1 protein level (c-IAP1 [1]) | amount of wild type c-IAP1 (c-IAP1 [1]) | stimulation of E3 activity of c-IAP compared with full length Smac (c-IAP1 [2]; as illustrated in the Examples) | E3 activity of c-IAP1ΔBIR1 (c-IAP1 [2]; peptides and controls, FIG. 7B) |
| --- | --- | --- | --- | --- | --- | --- |
| CC(C)C[C@@H](C=O)NC(=O)[C@H](CC(C)C)NC(=O)[C@H](CC(C)C)NC(=O)OCc1ccccc1 [MG132, reference compound] (Cbz-Leu-Leu-Leu-aldehyde) | did not show such a significant change | more poly-ubiquitylated XIAP products could be detected | did not cause a significant increase | dramatically increased | – | – |
| AVPIAQ (listed as Homo sapiens) [Smac-6] | – | – | – | – | as effectively as the full length Smac polypeptide | effectively stimulated E3 activity |
